Entries after “also recorded” stand apart in the source; their conditions may differ. Read-outs that look alike come from different tables or passages of the source.
Key:
[1] = Wide-angle x-ray diffraction (WAXRD) of powders; type: physicochemical; conditions: powder, 2θ 5 to 35°
Experimental: The ABZ and ABZ-BA powders were characterized by an X’Pert3 Powder X-ray diffractometer (PANalytical, Inc. U.K.), a voltage of 40 kV, and a current of 40 mA. The samples were scanned from 2θ = 5 to 35° at a scanning speed of 1°/min, and the step size was at 0.01° 2θ [10].

[2] = Water solubility, stated in response to reviewers; type: physicochemical
Excerpt: ABZ and ABZ-BA are both water-insoluble, so we suspended the drug in a 0.5% sodium carboxymethyl cellulose (CMC-Na) aqueous solution. This method of administration has been widely used for the oral administration of poorly soluble drugs. This method has been adopted by our research group in previous studies, and many studies have been published that use this method, including the following: […]

[3] = test system: protoscolex (PSCs); assay: Detection of protoscolex mortality / survival rate in vitro (trypan blue); type: cell-based, E. multilocularis; conditions: for inhibitory effect on PSC survival rate: 7 days, ABZ 10 μg/mL, ABZ-SO 10 μg/mL, ABZ-BA 13.45, 26.9, 53.8 μg/mL, liver homogenate + 0.2% DMSO, n = 3
Excerpt: (§1) Protoscoleces (PSCs) from E. multilocularis were collected aseptically from alveolar echinococcosis obtained from the abdominal cavity of gerbils in Qinghai Research Key Laboratory for Echinococcosis, China. The specific operation steps were as follows: (1) dissect the successfully preserved Echinococcus protoscoleces gerbil model, isolate cysts and wash the residual liver tissue and blood with sterile Penicillin-Streptomycin solution (penicillin (1500 U/ mL) + streptomycin (1000 U/ mL)). (2) Place the clean cysts in sterile glassware, cut them into a slurry, filter the original head section with sterile gauze, and rinse them with Penicillin-Streptomycin solution 3 times. (3) Slightly rotate and shake the filtrate, absorb the suspended connective tissue, impurities, inactivated PSCs, and excess Penicillin-Streptomycin solution in the upper layer, repeat several times and finally concentrate the pure PSCs into the test tube. Viability was assessed by muscular movement (evaluated under an optical microscope), the motility of flame cells, and the exclusion test with methylene blue. The PSCs were incubated in an RPMI 1640 medium containing 0.20 mg/mL liver homogenous serous, 100 U/mL penicillin, 100 μg/mL streptomycin and 10% calf serum at 37°C in a 5% CO2 atmosphere at a concentration of (1000–2000) PSCs/mL.
(§2) The PSCs were divided into blank control groups (Groups 1 and 2), positive control groups (Groups 3 and 4), and experimental groups (Groups 5 to 7). Group 1 was RPMI-1640 medium with 0.20 mg/mL liver homogenate; Group 2 was 0.2% DMSO medium with 0.2% DMSO; Group 3 was RPMI-1640 medium with 0.20 mg/mL liver homogenate and 0.2% DMSO, containing 10 μg/mL Albendazole; Group 4 was RPMI-1640 medium with 0.20 mg/mL liver homogenate and 0.2% DMSO, containing 10 μg/mL albendazole sulfoxide; Groups 5–7 were RPMI-1640 medium with 0.20 mg/mL liver homogenate and 0.2% DMSO, containing 13.45, 26.9 and 53.8 μg/mL ABZ-BA, with effective ABZ concentrations of 5, 10 and 20 μg/mL, respectively. The culture medium and drug were changed every 3 days for one week. PSCs samples (10 μL) were collected every day and stained with 0.4% trypan blue staining solution, observed under an inverted microscope, and photographed to record PSC mortality.

[4] = test system: protoscolex (PSCs); assay: Protoscolex microstructure by optical microscope and SEM; type: cell-based, E. multilocularis; conditions: 5 days after treatment
Excerpt: as §1, §2
For ultrastructural studies, 200 μL PSCs were taken from each group 5 days after treatment and fixed with 4% glutaraldehyde in sodium cacodylate buffer at 4°C for 72 hours. Samples were dehydrated by continuous incubation in increasing concentrations of ethanol (50–100%), and ethanol was removed by supercritical extraction. They were then sputter-coated with gold (100 Å thick) and examined on an FEI Quanta 200 scanning electron microscope operating at 20 kV.

[5] = Systemic pharmacokinetics in SD rats (UHPLC-MS); type: in vivo, Sprague-Dawley (SD) rats; conditions: for Cmax: po, 25 mg/kg
Experimental: A Dionex Ultimate 3000 RSLC system (Thermofisher) combined with an Accucore aQ C18 column (150 mm×2.1 mm, 2.6 μm, Thermo fisher) was used in the sample separation process. The separation speed was set at […] for all gradients. 1 μL of injection volume and a constant temperature of (25 ± 1°C were set for the column. The eluents were A, water with 0.1% formic acid (v/v) and B, methanol; the gradient program was as follows: 0–6 min, 8–40% B; 6–8 min, 40–100% B; 8–10 min, 100% B; 10–11 min, 100–8% B; 11–13 min, 8% B.
Heated electro-spray ionization (HE-SI) was paired with a Q-Orbitrap MS in the MS analysis. The flow rate of auxiliary, sheath and sweep gas was set at 35, 10, and 1 (arbitrary unit), respectively. A full MS-ddMS^2 mode was used to perform the analysis. The damping gas in the C-trap and nitrogen was used to stabilize the spraying. Temperatures of 350°C and 320°C were set and kept for the auxiliary gas heater and capillary. Under negative mode, 3.0 kV was adopted for the spray voltage, 60 V was used for the S-lens RF level, 50 ms was used for the maximum injection time, and 3.0 ^e6 was set as the automatic gain control target. Full MS-ddMS^2 scan ranged from 150.0000 to 800.0000 m/z. Precise molecular weight […] was used for qualitative analysis, the corresponding peak area was used for quantitative analysis, and MS^2 fragments were used for further qualitative analysis.
A cross-over design was employed with male SD rats (n = 7) to evaluate in vivo pharmacokinetics. The rats were subjected to fasting for one night before each administration and were fed 4 hours after administration. ABZ was administered by gavage (25 mg/kg). Blood was collected under isoflurane anesthesia at a flow rate of 2.0 mL/min. At 0.25, 0.5, 1, 2, 2.5, 3, 4, 6, 8, 12, and 24 hours after administration, 200–500 μL blood was collected from the orbital venous plexus and centrifuged at 13000 rpm for 5 min. The upper plasma was stored at—80°C for testing.
Plasma samples were thawed at room temperature, and 100 μL was added to an equal volume of mass spectrometry grade methanol, vortexed for 1 min, and centrifuged again at 13000 rpm for 5 min. 100 μL of the supernatant were added to 100 μL of 200 ng/mL mebendazole IS solution, vortexed for 1 min, and centrifuged again at 13000 rpm for 5 min. The resulting sample was injected by UHPLC-HR-ESI-MS with an injection volume of 1 μL. The pharmacokinetic study of SD rats was performed according to the standards recommended by the "Guidelines for the Care and Use of Laboratory Animals" (Animal Laboratory Resources Institute, 1995) and was approved by the Institutional Animal Care and Use Committee of Qinghai University.

CCCSc1ccc2[nH]c(NC(=O)NCCCCOC(=O)CCC(C)C3CCC4C5C(O)CC6CC(O)CCC6(C)C5CC(O)C34C)nc2c1 (stereo not drawn) [ABZ-BA]
physical state (WAXRD) [1]: amorphous | water solubility [2]: water-insoluble | inhibitory effect on PSC survival rate [3]: time and concentration-dependent inhibitory effects | inhibitory effect / killing ability on PSCs compared with ABZ ([3]; in vitro): identical to that of ABZ; also recorded: the same as that of ABZ | PSC morphology, lowest concentration ([4]; ABZ-BA 13.45 μg/mL): obvious shrinkage at the lowest concentration, but the suckers were still clearly visible | PSC morphology, intermediate and high concentration ([4]; ABZ-BA 26.9 and 53.8 μg/mL): strikingly distinct from their original form, appearing in a disc state after death | detectability in blood after oral administration for 8 hours ([5]; SD rats, oral 25 mg/kg): easily detected | pharmacokinetic behavior compared with Albenda ([5]; rat, in vivo): superior to that of Albenda

CCCSc1ccc2nc(NC(=O)OC)[nH]c2c1 [ABZ, Albendazole]
physical state (WAXRD) [1]: crystalline | water solubility ([2]; reason for dosing as suspension in 0.5% CMC-Na): water-insoluble | inhibitory effect on PSC survival rate [3]: time and concentration-dependent inhibitory effects | PSC morphology under the SEM ([4]; 10 μg/mL): elongated and curled up | PSC morphology under the optical microscope (OM) ([4]; 10 μg/mL): became vacuolar and transparent | mortality of PSCs ([4]; 10 μg/mL, vs blank groups): significantly higher than in the blank groups | Cmax ([5]; male, Sprague-Dawley, rat, in vivo, SD rats, oral 25mg/kg of API): 76.4 ± 7.62 ng/mL | Cmax ([5]; male, Sprague-Dawley, rat, in vivo, SD rats, oral 25 mg/kg, n = 7, Table 2): 8.44 ± 3.6 ng/mL | Tmax ([5]; male, Sprague-Dawley, rat, in vivo, SD rats, oral 25 mg/kg, n = 7): 10.9 ± 1.95 h | AUC(0-inf) ([5]; male, Sprague-Dawley, rat, in vivo, SD rats, oral 25 mg/kg, n = 7, Abz = ABZ content of ABZ-BA): 0.101 ± 0.0459 µg·h/mL | AUC(0-t) ([5]; male, Sprague-Dawley, rat, in vivo, SD rats, oral 25 mg/kg, n = 7, Abz = ABZ content of ABZ-BA, read-out: AUC(0–24)): 0.0915 ± 0.0427 µg·h/mL | MRT inf ([5]; male, Sprague-Dawley, rat, in vivo, SD rats, oral 25 mg/kg, n = 7, read-out: MRT(0-∞)): 13.9 ± 3.98 h | MRT last ([5]; male, Sprague-Dawley, rat, in vivo, SD rats, oral 25 mg/kg, n = 7, read-out: MRT(0–24)): 11.6 ± 0.91 h | Vd/F ([5]; male, Sprague-Dawley, rat, in vivo, SD rats, oral 25 mg/kg, n = 7, read-out: Vz/F): 1990 ± 1620 L/kg | half-life ([5]; male, Sprague-Dawley, rat, in vivo, SD rats, oral 25 mg/kg, n = 7, read-out: t1/2z (converted)): 5.51 ± 4.27 h | concentration at 8 h ([5]; male, Sprague-Dawley, rat, in vivo, SD rats, oral 25mg/kg, lower limit of detection, read-out: blood concentration after oral administration for 8 hours): < 1 ng/mL
